Test results taken from ChEMBL document CHEMBL1201862, “PubChem BioAssay data set” (2004).
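Results reflect a 48-hour exposure of cells in 96-well plates to compound at five concentrations. The concentration for 50% growth inhibition is given as GI50.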 Calls of active or inactive are those of the source. Rule as the data show it: active = GI50 up to about 1.1 µM and inactive = higher.

Tests used:
Assay in all cases: NCI anticancer screen, dose series, 48 h
[1] = system: SK-MEL-2
[2] = system: NCI-H226
[3] = system: CCRF-CEM
[4] = system: OVCAR-8
[5] = system: HL-60
[6] = system: A549
[7] = system: UACC-62
[8] = system: SF-539
[9] = system: A498
[10] = system: SF-295
[11] = system: OVCAR-5
[12] = system: OVCAR-3
[13] = system: DMS-273
[14] = system: ACHN
[15] = system: MOLT-4
[16] = system: OVCAR-4
[17] = system: K562
[18] = system: SK-OV-3
[19] = system: RPMI-8226
[20] = system: SK-MEL-5
[21] = system: KM12
[22] = system: LOX IMVI
[23] = system: IGROV-1
[24] = system: SNB-19
[25] = system: TK-10
[26] = system: HOP-18
[27] = system: 786-0
[28] = system: SNB-75
[29] = system: SN12C
[30] = system: SR
[31] = system: RXF 393
[32] = system: HCT-116
[33] = system: HCT-15
[34] = system: SNB-78
[35] = system: NCI-H23
[36] = system: HOP-92
[37] = system: HT-29
[38] = system: M19-MEL
[39] = system: Malme-3M
[40] = system: COLO 205
[41] = system: M14
[42] = system: LXFL 529
[43] = system: KM-20L2
[44] = system: UACC-257
[45] = system: NCI-H460
[46] = system: UO-31
[47] = system: SW-620
[48] = system: HCC 2998
[49] = system: EKVX
[50] = system: HOP-62
[51] = system: NCI-H522
[52] = system: DMS-114
[53] = system: U-251
[54] = system: SF-268
[55] = system: XF498
[56] = system: SK-MEL-28
[57] = system: CAKI-1
[58] = system: DLD-1
[59] = system: RXF 631

COc1cc2c(cc1OC)-c1cc(OC)c(OC)cc1[C@H]1CN3CCC[C@@]3(O)C=C21
GI50 [1]: < 0.1 nM (active)
GI50 [2]: < 0.1 nM (active)
GI50 [3]: < 0.1 nM (active)
GI50 [4]: < 0.1 nM (active)
GI50 [5]: < 0.1 nM (active)
GI50 [6]: < 0.1 nM (active)
GI50 [7]: < 0.1 nM (active)
GI50 [8]: < 0.1 nM (active)
GI50 [9]: < 0.1 nM (active)
GI50 [10]: < 0.1 nM (active)
GI50 [11]: < 0.1 nM (active)
GI50 [12]: < 0.1 nM (active)
GI50 [13]: < 0.1 nM (active)
GI50 [14]: < 0.1 nM (active)
GI50 [15]: < 0.1 nM (active)
GI50 [16]: < 0.1 nM (active)
GI50 [17]: < 0.1 nM (active)
GI50 [18]: < 0.1 nM (active)
GI50 [19]: < 0.1 nM (active)
GI50 [20]: < 0.1 nM (active)
GI50 [21]: < 0.1 nM (active)
GI50 [22]: < 0.1 nM (active)
GI50 [23]: < 0.1 nM (active)
GI50 [24]: < 0.1 nM (active)
GI50 [25]: 0.145 nM (active)
GI50 [26]: < 0.1 nM (active)
GI50 [27]: < 0.1 nM (active)
GI50 [28]: < 0.1 nM (active)
GI50 [29]: < 0.1 nM (active)
GI50 [30]: < 0.1 nM (active)
GI50 [31]: 10 nM (active)
GI50 [32]: < 0.1 nM (active)
GI50 [33]: < 0.1 nM
GI50 [34]: < 0.1 nM (active)
GI50 [35]: < 0.1 nM (active)
GI50 [36]: < 0.1 nM (active)
GI50 [37]: < 0.1 nM (active)
GI50 [38]: < 0.1 nM (active)
GI50 [39]: < 0.1 nM (active)
GI50 [40]: < 0.1 nM (active)
GI50 [41]: < 0.1 nM (active)
GI50 [42]: < 0.1 nM (active)
GI50 [43]: < 0.1 nM (active)
GI50 [44]: < 0.1 nM (active)
GI50 [45]: < 0.1 nM (active)
GI50 [46]: < 0.1 nM (active)
GI50 [47]: < 0.1 nM (active)
GI50 [48]: 10 nM (active)
GI50 [49]: < 0.1 nM (active)
GI50 [50]: < 0.1 nM (active)
GI50 [51]: < 0.1 nM (active)
GI50 [52]: < 0.1 nM (active)
GI50 [53]: < 0.1 nM (active)
GI50 [54]: < 0.1 nM (active)
GI50 [55]: < 0.1 nM (active)
GI50 [56]: < 0.1 nM (active)
GI50 [57]: < 0.1 nM (active)
GI50 [58]: < 0.1 nM (active)

CC(=O)O[C@H]1C=CC(=O)C(C)CC1C (some centres not stated)
GI50 [1]: > 100000 nM (inactive)
GI50 [2]: > 100000 nM (inactive)
GI50 [3]: 60100 nM (inactive)
GI50 [5]: 64900 nM (inactive)
GI50 [6]: > 100000 nM (inactive)
GI50 [7]: > 100000 nM (inactive)
GI50 [8]: > 100000 nM (inactive)
GI50 [9]: > 100000 nM (inactive)
GI50 [10]: > 100000 nM (inactive)
GI50 [11]: > 100000 nM (inactive)
GI50 [12]: > 100000 nM (inactive)
GI50 [13]: > 100000 nM (inactive)
GI50 [14]: > 100000 nM (inactive)
GI50 [15]: > 100000 nM (inactive)
GI50 [16]: > 100000 nM (inactive)
GI50 [17]: > 100000 nM (inactive)
GI50 [18]: > 100000 nM (inactive)
GI50 [20]: > 100000 nM (inactive)
GI50 [21]: > 100000 nM (inactive)
GI50 [22]: 45800 nM (inactive)
GI50 [23]: > 100000 nM (inactive)
GI50 [24]: > 100000 nM (inactive)
GI50 [25]: > 100000 nM (inactive)
GI50 [28]: > 100000 nM (inactive)
GI50 [29]: > 100000 nM (inactive)
GI50 [30]: > 100000 nM (inactive)
GI50 [31]: 42600 nM (inactive)
GI50 [32]: 44800 nM (inactive)
GI50 [34]: > 100000 nM (inactive)
GI50 [35]: 75900 nM (inactive)
GI50 [36]: > 100000 nM (inactive)
GI50 [59]: > 100000 nM (inactive)
GI50 [37]: > 100000 nM (inactive)
GI50 [38]: > 100000 nM (inactive)
GI50 [39]: > 100000 nM (inactive)
GI50 [40]: 55800 nM (inactive)
GI50 [41]: > 100000 nM (inactive)
GI50 [42]: > 100000 nM (inactive)
GI50 [43]: > 100000 nM (inactive)
GI50 [44]: > 100000 nM (inactive)
GI50 [45]: > 100000 nM (inactive)
GI50 [46]: > 100000 nM (inactive)
GI50 [47]: 73500 nM (inactive)
GI50 [48]: > 100000 nM (inactive)
GI50 [49]: > 100000 nM (inactive)
GI50 [50]: > 100000 nM (inactive)
GI50 [51]: 37900 nM (inactive)
GI50 [52]: > 100000 nM (inactive)
GI50 [53]: > 100000 nM (inactive)
GI50 [54]: > 100000 nM (inactive)
GI50 [55]: > 100000 nM (inactive)
GI50 [56]: > 100000 nM (inactive)
GI50 [57]: > 100000 nM (inactive)
GI50 [58]: 64000 nM (inactive)
